Key:
[1] = biological target: nuclear factor-kappa B (NF-kB)-inducing kinase (NIK) (Homo sapiens (Human), UniProt Q99558); test: NIK enzyme inhibition assay (Transcreener ADP, NIK ADP-FP); type: biochemical; conditions: purified NIK 0.5 nM, 10 μM ATP, fluorescence polarization; read-out: NIK ADP-FP (Ki μM)
[2] = tested on: REL-A (p65) nuclear translocation, HeLa cells; test: REL-A (p65) nuclear translocation assay in HeLa cells (classical NF-kB signaling, TNF-α stimulated); type: cell-based; conditions: Homo sapiens, 0.5 h; HeLa cells, 10 ng/mL TNF-α for 30 minutes; read-out: REL-A HeLa Transloc Assay (IC50)
Outline: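 HeLa cells were exposed to test compounds at various concentrations (0.2% DMSO final) in medium with 10% fetal bovine serum for 4.5 hours, then stimulated for 30 minutes with 10 ng/mL TNF-α. After fixation in 4% paraformaldehyde, 0.1% Triton X-100 permeabilization and staining with 400 ng/mL anti-REL-A (p65) antibody, Alexa488 secondary and DRAQ5, Opera imaging gave nuclear-to-cytoplasmic signal ratios to calculate IC50.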

[3] = tested on: p52 (NF-kB2) nuclear translocation, HeLa cells; test: p52 (NF-kB2) nuclear translocation assay in HeLa cells (non-classical NF-kB signaling, anti-lymphotoxin beta receptor antibody stimulated); type: cell-based; conditions: Homo sapiens, 100 ng/mL anti-lymphotoxin beta receptor antibody for 5 hours, read-out: p52 HeLa Transloc Assay (IC50)
Outline: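 HeLa cells in 10% FBS medium were treated with compound (0.2% DMSO final) and stimulated with 100 ng/mL anti-lymphotoxin beta receptor antibody for 5 h. Fixed cells were immunostained for p52 and imaged with DRAQ5 nuclear stain. Translocation is the nuclear to cytoplasmic intensity ratio, and IC50 values are in micromolar.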

Chain of nuclear factor-kappa B (NF-kB)-inducing kinase (NIK) (Q99558 whole entry): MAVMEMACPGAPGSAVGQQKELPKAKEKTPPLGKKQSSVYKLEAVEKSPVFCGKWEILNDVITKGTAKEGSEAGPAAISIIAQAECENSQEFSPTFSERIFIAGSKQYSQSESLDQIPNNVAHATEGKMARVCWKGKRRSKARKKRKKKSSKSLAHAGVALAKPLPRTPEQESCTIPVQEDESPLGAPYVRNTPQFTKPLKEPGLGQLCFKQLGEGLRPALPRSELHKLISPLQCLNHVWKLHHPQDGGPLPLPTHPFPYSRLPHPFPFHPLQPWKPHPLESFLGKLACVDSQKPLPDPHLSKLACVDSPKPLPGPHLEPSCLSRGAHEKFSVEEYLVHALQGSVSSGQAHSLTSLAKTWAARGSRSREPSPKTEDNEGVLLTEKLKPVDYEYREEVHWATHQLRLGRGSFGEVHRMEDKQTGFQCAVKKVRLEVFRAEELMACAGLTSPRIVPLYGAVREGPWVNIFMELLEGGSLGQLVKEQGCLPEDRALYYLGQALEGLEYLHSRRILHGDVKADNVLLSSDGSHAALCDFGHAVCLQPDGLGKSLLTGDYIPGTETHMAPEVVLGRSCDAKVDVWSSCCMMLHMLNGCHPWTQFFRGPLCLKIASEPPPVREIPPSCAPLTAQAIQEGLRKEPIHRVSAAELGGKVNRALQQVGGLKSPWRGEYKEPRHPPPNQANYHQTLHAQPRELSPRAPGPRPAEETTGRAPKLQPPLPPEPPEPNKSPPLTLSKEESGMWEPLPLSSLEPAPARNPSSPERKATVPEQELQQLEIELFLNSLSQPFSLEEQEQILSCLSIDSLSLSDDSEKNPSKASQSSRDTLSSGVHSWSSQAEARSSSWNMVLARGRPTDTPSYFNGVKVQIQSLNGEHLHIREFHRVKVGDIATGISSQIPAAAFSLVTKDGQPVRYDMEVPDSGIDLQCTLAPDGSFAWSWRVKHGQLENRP

| Compound | Ki [1] [nM] | IC50 [2] [nM] | IC50 [3] [nM] |
| --- | --- | --- | --- |
| CN1CC[C@@](O)(C#Cc2cccc(-c3nc(C(N)=O)n4ccc(Cl)cc34)c2)C1=O [Compound 94, 7-chloro-1-[3-[2-[(3R)-3-hy-droxy-1-methyl-2-oxo-pyrroli-din-3-yl]ethynyl]phenyl] imidazo[1,5-a]pyridine-3-carboxamide] | 0.05 | 6320 | 7.26 |
| CN1CCC[C@@](O)(C#Cc2cccc(-n3nc(C(N)=O)c4ccc(F)cc43)c2)C1=O [Compound 27, 6-fluoro-1-[3-[2-[(3R)-3-hy-droxy-1-methyl-2-oxo-3-pipe-ridyl]ethynyl]phenyl]inda-zole-3-carboxamide] | 3.75 | 20000 | 322 |
| CN1CC[C@@](O)(C#Cc2cc(-n3nc(C(N)=O)c4cccnc43)ccc2F)C1=O [Compound 31, 1-[4-fluoro-3-[2-[(3R)-3-hy-droxy-1-methyl-2-oxo-pyrroli-din-3-yl]ethynyl]phenyl] pyrazolo[3,4-b]pyridine-3-carboxamide] | 0.62 | 20000 | 67.1 |
| CN1CC[C@@](O)(C#Cc2cccc(-n3nc(C(N)=O)c4cnc(N5CCCC5)cc43)c2)C1=O [Compound 137, 1-[3-[2-[(3R)-3-hydroxy-1-methyl-2-oxo-pyrrolidin-3-yl]ethynyl]phenyl]-6-pyrroli-din-1-yl-pyrazolo[4,3-c]pyri-dine-3-carboxamide] | 0.25 | 20000 | 33.8 |
| C[C@@](O)(C#Cc1cccc(-n2nc(C(N)=O)c3ccccc32)c1)c1c[nH]nn1 [Compound 117, 1-[3-[(3R)-3-hydroxy-3-(1H-triazol-4-yl)but-1-ynyl]phe-nyl]indazole-3-carboxamide] | 0.32 | 20000 | 74.3 |
| CN1CC[C@@](O)(C#Cc2cccc(-c3nc(C(N)=O)n4cc(Cl)ccc34)c2)C1=O [Compound 93, 6-chloro-1-[3-[2-[(3R)-3-hy-droxy-1-methyl-2-oxo-pyrroli-din-3-yl]ethynyl]phenyl] imidazo[1,5-a]pyridine-3-carboxamide] | 0.06 | 20000 | 15.3 |
| CN1CC[C@@](O)(C#Cc2cccc(-c3nc(C(N)=O)n4ccncc34)c2)C1=O [Compound 92, 1-[3-[2-[(3R)-3-hydroxy-1-methyl-2-oxo-pyrrolidin-3-yl]ethynyl]phenyl]imidazo[1,5-a]pyrazine-3-carboxamide] | 0.37 | 20000 | 25.9 |
| CN1CC[C@@](O)(C#Cc2cccc(-n3nc(C(N)=O)c4c3CCCC4)c2)C1=O [Compound 57, 1-[3-[2-[(3R)-3-hydroxy-1-methyl-2-oxo-pyrrolidin-3-yl]ethynyl]phenyl]-4,5,6,7-tetra-hydroindazole-3-carbox-amide] | 1.4 | 20000 | 405 |
| CN1CC[C@@](O)(C#Cc2ccnc(-n3nc(C(N)=O)c4c3C[C@@]3(C)C[C@H]3C4)c2)C1=O [Compound 6, (4aS,5aR)-1-[4-[2-[(3R)-3-hydroxy-1-methyl-2-oxo-pyrroli-din-3-yl]ethynyl]-2-pyri-dyl]-5a-methyl-4,4a,5,6-tetrahydrocyclopropa[f]inda-zole-3-carboxamide] | 7.78 | 10000 | 901 |
| CN1CC[C@@](O)(C#Cc2cc(-n3nc(C(N)=O)c4c3CCCC4)ccc2C#N)C1=O [Compound 167, 1-[4-cyano-3-[2-[(3R)-3-hy-droxy-1-methyl-2-oxo-pyrroli-din-3-yl]ethynyl]phenyl]-4,5,6,7-tetrahydroindazole-3-carboxamide] | 1.93 | 20000 | 397 |
| CN1CC[C@@](O)(C#Cc2cccc(-n3nc(C(N)=O)c4c3OCCC4)c2)C1=O [Compound 12, 1-[3-[2-[(3R)-3-hydroxy-1-methyl-2-oxo-pyrrolidin-3-yl]ethynyl]phenyl]-5,6-dihydro-4H-pyrano[2,3-c]pyrazole-3-carboxamide] | 1.56 | 20000 | 187 |
